Results: patent publication US20250346599A1, “TRICYCLIC PHTHALAZINONE PARP INHIBITORS AND METHODS OF USE” (Valo Health, Inc., priority 2022, published 2025)
pIC50: −log10 of the molar value. Values joined by “and” are separate entries in the source; they are usually repeats but may differ in a detail not shown here. Equal entries are not always repeated.

Molecular target: PARP1 enzyme (Homo sapiens (Human), UniProt P09874)
Assay: PARP Mass Spectroscopy Assay (PARP1 enzymatic assay, nicotinamide detection)
Format: biochemical
Details: 5 nM PARP1, 5 uM β-NAD, 60 min at RT, NAM by mass spectrometry
Text: Materials and Reagents: The PARP1 enzyme was purchased from BPS Bioscience (cat #80501). Tris-HCl, pH 8.0 was purchased from Corning (cat #46-031-CM). Magnesium chloride was purchased from Thermo Fisher Scientific (previously Honeywell Fluka, cat #63020-1L). All other assay components, activated DNA (cat #D4522), core histones (cat #SRP6590), β-Nicotinamide adenine dinucleotide (β-NAD—cat #N8285), 3ABA PARP1 small molecule inhibitor (from the PARP1 Enzyme Activity Assay kit, cat #17-10149), Sodium Chloride (NaCl, cat #56546-1L), Triton X-100 (cat #93443), Dithiothreitol (DTT, cat #43816-250 ML) were all purchased from Millipore Sigma.
Assay Buffer: The assay buffer includes the following reagents: 50 mM Tris-HCl pH 8.0, 50 mM NaCl, 10 mM, MgCl2, 0.01% Triton X-100, and 1 mM DTT.
PARP1 enzymatic assays were performed in 384-well plates in a total volume of 20 μL in the assay buffer. For concentration response curves, compounds were serially diluted 3-fold from 2 mM highest concentration […] to generate a 10-point curve, and 125 nL was transferred to the assay plate using the Echo acoustic dispenser for a final concentration range of 26.6 μM to […] in 10 μL reaction. Five microliters of 10 nM PARP1 enzyme and 100 nM core histones (2×) mix were added to the assay plates and pre-incubated for 30 mins at room temperature (RT). The reaction was initiated by the addition of a 5 μL of 10 uM β-NAD plus 0.02 mg/mL activated DNA (2×) mix. The reaction is incubated for 60 min at RT. The final concentration of the PARP1 enzyme and substrate concentrations were 5 nM and 5 uM, respectively. The positive control (high signal) and negative control (low signal) wells had 125 nL of DMSO in place of compounds. After the incubation is complete, the reaction is stopped by the addition of 10 μL of 10 uM of the 3ABA PARP1 inhibitor, incubated for 5 min at RT, and placed in the −80 C freezer for shipment to the Valo Health site in Branford Connecticut where mass spectrometry will be used to directly detect quantities of nicotinamide (NAM).
The percent inhibition of enzyme activity was calculated according to the following equation: […]
The values of Ssample, Shigh, and Slow in the equation refer to the NAM concentration detected in the assay wells, high control wells, and low control wells, respectively. To determine inhibitor IC50 values, % inhibition of the CRCs (concentration response curves) was fitted to the standard single-site four-parameter logistic equation.

Sequence of PARP1 enzyme (P09874 whole entry): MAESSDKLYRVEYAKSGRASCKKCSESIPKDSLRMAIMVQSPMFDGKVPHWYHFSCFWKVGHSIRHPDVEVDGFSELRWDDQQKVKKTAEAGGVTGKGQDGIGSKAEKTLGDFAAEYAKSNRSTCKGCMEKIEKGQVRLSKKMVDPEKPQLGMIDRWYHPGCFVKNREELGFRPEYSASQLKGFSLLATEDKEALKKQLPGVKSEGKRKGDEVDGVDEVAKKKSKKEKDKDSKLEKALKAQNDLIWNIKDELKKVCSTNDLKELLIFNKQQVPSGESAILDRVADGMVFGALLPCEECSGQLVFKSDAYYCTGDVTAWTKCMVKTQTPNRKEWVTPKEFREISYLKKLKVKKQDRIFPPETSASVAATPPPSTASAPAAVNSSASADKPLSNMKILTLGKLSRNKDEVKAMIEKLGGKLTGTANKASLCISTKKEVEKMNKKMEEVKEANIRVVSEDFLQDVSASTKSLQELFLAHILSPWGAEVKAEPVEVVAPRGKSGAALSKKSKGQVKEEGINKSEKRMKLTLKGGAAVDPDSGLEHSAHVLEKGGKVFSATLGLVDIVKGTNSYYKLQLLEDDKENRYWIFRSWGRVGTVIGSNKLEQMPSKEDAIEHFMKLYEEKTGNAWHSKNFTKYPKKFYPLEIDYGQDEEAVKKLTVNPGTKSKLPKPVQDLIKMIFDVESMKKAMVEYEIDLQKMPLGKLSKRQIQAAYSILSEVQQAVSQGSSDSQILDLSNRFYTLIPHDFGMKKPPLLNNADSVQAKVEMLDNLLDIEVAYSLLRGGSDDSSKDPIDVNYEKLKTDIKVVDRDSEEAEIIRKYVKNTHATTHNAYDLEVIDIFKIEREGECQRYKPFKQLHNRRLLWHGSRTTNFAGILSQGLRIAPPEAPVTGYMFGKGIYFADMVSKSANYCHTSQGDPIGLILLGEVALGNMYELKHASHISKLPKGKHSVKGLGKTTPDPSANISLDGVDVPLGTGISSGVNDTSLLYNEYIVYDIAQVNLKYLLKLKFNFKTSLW

Structure (SMILES) | pIC50
CC(C)[C@H]1Nc2cc(F)cc3c(=O)[nH]nc(c23)[C@@H]1c1ccccc1Cl [Compound 0222A] | 7.64
CN1CCC([C@H]2Nc3cc(F)cc4c(=O)[nH]nc(c34)[C@@H]2c2ccccc2Cl)CC1 [Compound 0116A, (8R,9R)-9-(2-chlorophenyl)-5-fluoro-8-(1-methylpiperidin-4-yl)-2,7,8,9-tetrahydro-3H-pyrido[4,3,2-de]phthalazin-3-one] | 5.28
CN1CCC[C@H]([C@H]2CNc3cc(F)cc4c(=O)[nH]nc2c34)C1 [Compound 0191B] | 7.43
N#Cc1ccc([C@@H]2CNc3cc(F)cc4c(=O)[nH]nc2c34)c(F)c1 [Compound 0187A] | 8.05
O=c1[nH]nc2c3c(cc(F)cc13)N[C@@H](CF)[C@@H]2c1ccc(Cl)cc1F [Compound 0252A] | 7.24
C[C@H]1Nc2cc(F)cc3c(=O)[nH]nc(c23)[C@@H]1[C@@H]1CCCCN1C [Compound 0199B] | 6.93
O=c1[nH]nc2c3c(cc(F)cc13)NC(C1CCNC1)C2c1ccccc1Cl (stereo not drawn) [Compound 0171, 12-(2-chlorophenyl)-7-fluoro-11-(pyrrolidin-3-yl)-2,3,10-triazatricyclo[7.3.1.0^{5,13}]trideca-1,5(13),6,8-tetraen-4-one] | 7.04
O=c1[nH]nc2c3c(cc(F)cc13)NC[C@@H]2c1ccc(Cl)c(F)c1 [Compound 0188B, (S)-9-(4-chloro-3-fluorophenyl)-5-fluoro-2,7,8,9-tetrahydro-3H-pyrido[4,3,2-de]phthalazin-3-one] | 7.00
Cn1ncnc1[C@@H]1c2n[nH]c(=O)c3cc(F)cc(c23)N[C@H]1C1CCN(C2CCC(F)(F)CC2)CC1 [Compound 0266A] | 5.77
O=c1[nH]nc2c3c(cc(F)cc13)N[C@H](C1CCC(F)(F)CC1)[C@H]2c1ccccc1Cl [Compound 0213A] | 6.45
C[C@H]1Nc2cc(F)cc3c(=O)[nH]nc(c23)[C@H]1[C@@H]1CCCN(C)C1 [Compound 0198B] | 7.41
CN1CCCC[C@@H]1[C@@H]1CNc2cc(F)cc3c(=O)[nH]nc1c23 [Compound 0192A] | 7.57
O=c1[nH]nc2c3c(cc(F)cc13)N[C@H](C1CCN(C3CCC(F)(F)CC3)CC1)[C@H]2c1ccccc1Cl [Compound 0261A] | 6.05
O=c1[nH]nc2c3c(cc(F)cc13)NC(C1CCNC1)C2c1ccc(F)cc1F (stereo not drawn) [Compound 0173A, 12-(2,4-difluorophenyl)-7-fluoro-11-(pyrrolidin-3-yl)-2,3,10-triazatricyclo[7.3.1.0^{5,13}]trideca-1,5(13),6,8-tetraen-4-one] | 7.15
N#Cc1ccc(C2c3n[nH]c(=O)c4cc(F)cc(c34)NC2c2c(F)cc(F)cc2F)cc1F (stereo not drawn) [0092A; 0092B, 2-fluoro-4-(5-fluoro-3-oxo-8-(2,4,6-trifluorophenyl)-2,7,8,9-tetrahydro-3H-pyrido[4,3,2-de]phthalazin-9-yl)benzonitrile] | 7.89
CN1CCC[C@@H]([C@H]2CNc3cc(F)cc4c(=O)[nH]nc2c34)C1 [Compound 0191D] | 7.46
CC1Nc2cc(F)cc3c(=O)[nH]nc(c23)C1C1CCCN(C)C1 (stereo not drawn) [Compound 0198-5] | 6.61
N#Cc1ccc([C@H]2c3n[nH]c(=O)c4cc(F)cc(c34)N[C@@H]2C2CCN(C3CCC(F)(F)CC3)CC2)c(F)c1 [Compound 0276B] | 7.52
COCCN1CCC(C2Nc3cc(F)cc4c(=O)[nH]nc(c34)C2c2ccccc2Cl)C1 (stereo not drawn) [Compound 0117-8, 12-(2-chlorophenyl)-7-fluoro-11-[1-(2-methoxyethyl)pyrrolidin-3-yl]-2,3,10-triazatricyclo[7.3.1.0^{5,13}]trideca-1,5(13),6,8-tetraen-4-one] | 6.25
O=c1[nH]nc2c3c(cc(F)cc13)N[C@H](C1(F)CC1)[C@H]2c1ccccc1Cl [Compound 0260A] | 8.70
C[C@@H]1Nc2cc(F)cc3c(=O)[nH]nc(c23)[C@H]1[C@H]1CCCN(C)C1 [Compound 0198C] | 7.35
CN1CCC[C@H]([C@H]2CNc3cc(F)cc4c(=O)[nH]nc2c34)C1 [Compound 0191-8] | 7.34
O=c1[nH]nc2c3c(cc(F)cc13)NC(C1(F)CC1)[C@H]2c1ccc(Cl)cc1F (stereo partly drawn) [Compound 0255B] | 6.99
O=c1[nH]nc2c3c(cc(F)cc13)NC(C1CCCN1)C2c1ccccc1Cl (stereo not drawn) [Compound 0181-6] | 5.92
O=c1[nH]nc2c3c(cc(F)cc13)N[C@H](CF)[C@H]2c1ccc(Cl)cc1F [Compound 0252B] | 8.10
CC1Nc2cc(F)cc3c(=O)[nH]nc(c23)C1c1ccc(Cl)cc1F (stereo not drawn) [Compound 0196-5] | 8.05

Structure (SMILES) | pIC50
N#Cc1ccc([C@@H]2CNc3cc(F)cc4c(=O)[nH]nc2c34)cc1F [Compound 0186A] | 6.61
O=c1[nH]nc2c3c(cc(F)cc13)N[C@@H](C1(F)CC1)[C@@H]2c1ccc(Cl)cc1F [Compound 0255A] | 8.40
CC(=O)N1CCC([C@H]2Nc3cc(F)cc4c(=O)[nH]nc(c34)[C@@H]2c2ccccc2Cl)CC1 [Compound 0223A] | 5.92
C[C@@H]1Nc2cc(F)cc3c(=O)[nH]nc(c23)[C@H]1[C@@H]1CCCCN1C [Compound 0199D] | 7.60
CN1CCCC[C@@H]1[C@H]1CNc2cc(F)cc3c(=O)[nH]nc1c23 [Compound 0192B] | 7.66
O=c1[nH]nc2c3c(cc(F)cc13)N[C@@H](c1c(F)cc(F)cc1F)[C@@H]2C1CCNCC1 [Compound 0098B] | 7.52
O=c1[nH]nc2c3c(cc(F)cc13)NC[C@H]2c1ccc(F)cc1F [Compound 0114A, (R)-9-(2,4-difluorophenyl)-5-fluoro-2,7,8,9-tetrahydro-3H-pyrido[4,3,2-de]phthalazin-3-one] | 6.57
C[C@H]1Nc2cc(F)cc3c(=O)[nH]nc(c23)[C@@H]1[C@@H]1CCCN(C)C1 [Compound 0198D] | 7.38
N#Cc1ccc([C@H]2CNc3cc(F)cc4c(=O)[nH]nc2c34)cc1F [Compound 0186B] | 7.39
N#Cc1ccc([C@H]2c3n[nH]c(=O)c4cc(F)cc(c34)N[C@@H]2C2CCN(C3CCC(F)(F)CC3)CC2)c(F)c1 [Compound 0276A] | 6.55
O=c1[nH]nc2c3c(cc(F)cc13)NC(COCc1ccccc1)C2c1ccc(F)cc1F (stereo not drawn) [Compound 0267-4] | 7.89
C[C@H]1Nc2cc(F)cc3c(=O)[nH]nc(c23)[C@@H]1[C@H]1CCCCN1C [Compound 0199A] | 7.19
O=c1[nH]nc2c3c(cc(F)cc13)N[C@@H](C1CCN(C3CCC(F)(F)CC3)CC1)[C@@H]2c1ccccc1Cl [Compound 0261B] | 6.52
O=c1[nH]nc2c3c(cc(F)cc13)N[C@@H]([C@H]1CCOC1)[C@@H]2c1ccccc1Cl [Compound 0121C] | 6.07
O=c1[nH]nc2c3c(cc(F)cc13)NC(C1CCOC1)C2c1ccccc1Cl (stereo not drawn) [Compound 0121-4] | 7.41
CC(C)[C@H]1Nc2cc(F)cc3c(=O)[nH]nc(c23)[C@@H]1c1c(F)cc(F)cc1F [Compound 0221A] | 8.70
C[C@@H]1Nc2cc(F)cc3c(=O)[nH]nc(c23)[C@H]1c1ccccc1Cl [Compound 0172B, (8S,9S)-9-(2-chlorophenyl)-5-fluoro-8-methyl-2,7,8,9-tetrahydro-3H-pyrido[4,3,2-de]phthalazin-3-one] | 7.74
O=c1[nH]nc2c3c(cc(F)cc13)NC(C1CCC(F)(F)CC1)C2c1c(F)cc(F)cc1F (stereo not drawn) [Compound 0212A] | 7.82 and 7.70
O=c1[nH]nc2c3c(cc(F)cc13)N[C@@H](C1CCN(C3CCC(F)(F)CC3)CC1)[C@@H]2c1ccc(F)cc1F [Compound 0271A] | 6.03
O=c1[nH]nc2c3c(cc(F)cc13)N[C@H]([C@@H]1CCOC1)[C@H]2c1ccccc1Cl [Compound 0121B] | 6.63
CC1Nc2cc(F)cc3c(=O)[nH]nc(c23)C1c1ccc(Cl)c(F)c1 (stereo not drawn) [Compound 0195-5, 9-(4-chloro-3-fluorophenyl)-5-fluoro-8-methyl-2,7,8,9-tetrahydro-3H-pyrido[4,3,2-de]phthalazin-3-one] | 7.74
O=c1[nH]nc2c3c(cc(F)cc13)NC(COCc1ccccc1)C2c1ccccc1Cl (stereo not drawn) [Compound 0257-4] | 6.23
CN1CCC[C@H]([C@@H]2CNc3cc(F)cc4c(=O)[nH]nc2c34)C1 [Compound 0191C] | 7.30
N#Cc1ccc([C@@H]2c3n[nH]c(=O)c4cc(F)cc(c34)N[C@H]2C2CCC(F)(F)CC2)cc1F [Compound 0214B] | 7.70
CC(C)(C)C[C@H]1Nc2cc(F)cc3c(=O)[nH]nc(c23)[C@@H]1c1c(F)cc(F)cc1F [Compound 0219A] | 6.29
